According to patent US10730885B1, “Coumarin derivatives” (KING SAUD UNIVERSITY, priority 2019, dated 2020):
Converted amounts (≈) assume the structure as drawn. Read-outs that look alike come from different tables or passages of the source.

Legend:
[1] = test system: Escherichia coli ATCC 2592; test: Agar well diffusion, primary antimicrobial screening; type: cell-based; conditions: for zone of inhibition at 10000 µg/mL: Escherichia coli, ATCC2592, E. coli ATCC 2592, 100 μL of 10 mg/ml in DMSO, 24 h, read-out: Inhibition Diameter Zone EC; for antibacterial activity compared with ciprofloxacin: E. coli
Source text: (§1) The newly synthesized compounds were individually tested for their in vitro antimicrobial activity against the standard bacteria strains of American Type Culture Collection (ATCC), namely, Staphylococcus aureus ATCC 29213, Bacillus subtilis ATCC 6633, Bacillus megaterium ATCC 9885 (Gram-positive), Escherichia coli ATCC 2592 and Pseudomonas aeruginosa ATCC 27953 (Gram-negative). In addition, they were microbiologically tested against the locally isolated Saccharomyces cerevisiae (yeast) and the standard strain of Agricultural Research Service Culture Collection (NRRL) of the yeast like pathogenic fungus Candida albicans NRRL Y-477. The primary screening was carried out using the agar well diffusion method using nutrient agar (NA) medium and Sabourand dextrose agar (SDA) medium for pathological tested bacteria and yeast, respectively.
(§2) Antimicrobial tests were carried out by the agar well diffusion method using 100 μL of suspension containing 1×10^8 CFU/mL of pathological tested bacteria and 1×10^6 CFU/ml of yeast spread on NA and SDA, respectively. After the media was cooled and solidified, wells (10 mm in diameter) were made in the solidified agar and loaded with 100 μL of tested compound solution prepared by dissolving 10 mg of the chemical compound in one ml of dimethyl sulfoxide (DMSO). The inculcated plates were then incubated for 24 h at 37° C. for bacteria and yeast. Negative controls were prepared using DMSO employed for dissolving the tested compound. Ciprofloxacin (10 mg/ml) and ketoconazole (10 mg/ml) were used as standard for antibacterial and antifungal activity, respectively. After incubation time, antimicrobial activity was evaluated by measuring the zone of inhibition against the test organisms and compared with that of the standard. Antimicrobial activities were expressed as inhibition diameter zones in millimeters (mm). The experiment was carried out in triplicate and the average zone of inhibition was calculated.

[2] = test system: Pseudomonas aeruginosa ATCC 27953; test: as above; type: cell-based; conditions: for zone of inhibition at 10000 µg/mL: Pseudomonas aeruginosa, ATCC27953, P. aeruginosa ATCC 27953, 100 μL of 10 mg/ml in DMSO, 24 h, read-out: Inhibition Diameter Zone PA; for antibacterial activity compared with standard: P. aeruginosa
Source text: as §1, §2

[3] = test system: Candida albicans NRRL Y-477; test: as above; type: cell-based; conditions: for zone of inhibition at 10000 µg/mL: Candida albicans, NRRLY477, C. albicans NRRL Y-477, 100 μL of 10 mg/ml in DMSO, 24 h, read-out: Inhibition Diameter Zone CA; for antifungal activity compared with reference drug: C. albicans
Source text: as §1, §2

[4] = test system: Saccharomyces cerevisiae (local isolate); test: as above; type: cell-based; conditions: for zone of inhibition at 10000 µg/mL: Saccharomyces cerevisiae, 24 h, read-out: Inhibition Diameter Zone SC; for antimicrobial activity compared with ketoconazole: S. cerevisiae
Source text: as §1, §2

[5] = test system: Bacillus subtilis ATCC 6633; test: as above; type: cell-based; conditions: for zone of inhibition at 10000 µg/mL: Bacillus subtilis, ATCC6633, B. subtilis ATCC 6633, 100 μL of 10 mg/ml in DMSO, 24 h, read-out: Inhibition Diameter Zone BS; for antibacterial activity compared with reference drug: B. subtilis
Source text: as §1, §2

[6] = test system: Bacillus megaterium ATCC 9885; test: as above; type: cell-based; conditions: for zone of inhibition at 10000 µg/mL: Priestia megaterium, ATCC9885, B. megaterium ATCC 9885, 100 μL of 10 mg/ml in DMSO, 24 h, read-out: Inhibition Diameter Zone BM; for antibacterial activity compared with ciprofloxacin: B. megaterium
Source text: as §1, §2

[7] = DPPH microplate radical scavenging antioxidant assay; type: biochemical; conditions: for IC50: DPPH, 30 min, mean ± SD (n = 3)
Description: The antioxidant activity of the synthesized compounds was measured in terms of hydrogen-donating or radical scavenging ability using the DPPH microplate-based method. Absorbance measurement was obtained using Microplate/cuvette reader (Spectramax M5, Molecular Devices, California, USA). Reference standard compound ascorbic acid was used as the positive control for this assay at concentrations ranging from 1.563 to 200 μg/mL. Test samples were prepared at a starting concentration of 200 μg/mL after mixing with 100 μl of 0.2 mM DPPH methanolic solution. A series of concentrations were tested for the samples in order to determine the 50% inhibitory concentration (IC50). Samples were incubated with DPPH in the dark for 30 min at room temperature (25° C.). The DPPH solution in methanol was prepared daily and stored in a flask covered with aluminum foil. DPPH radicals have an absorption maximum (λmax) at 515 nm, in which the absorbance values were measured and converted into percentage of antioxidant activity.
Methanolic DPPH solution without antioxidant was applied as control and background control was samples in methanol only. IC50 was determined using Graphpad Prism 7 (Graphpad Software Inc. CA, USA). The percentage inhibition was calculated by using the formula:
The assay was carried out in triplicate and performed as much as possible in an area protected against light. The data points are presented as the mean±standard deviation (SD) (n=3).

trypsin = test: Proteinase inhibitory activity (trypsin/casein); type: biochemical; conditions: for % Inhibition of proteinase activity: 250 μg/ml, mean ± SD (n = 3)
Description: For proteinase inhibitory activity, the reaction mixture (2 ml) contained 0.06 mg trypsin, 20 mM Tris HCl buffer (pH 7.4) and 1 ml test sample (250 μg/ml for each compound). The mixture was incubated for 5 min and then 1 ml of 0.8% (w/v) casein was added. The mixture was incubated for an additional 20 min. 1 ml of 10% perchloric acid was added to arrest the reaction. The cloudy suspension was centrifuged, and the absorbance of the supernatant was read at 280 nm. Reference standard compound aspirin was used as the positive control for this assay. The experiment was performed in triplicate. Percentage inhibition of […] was calculated by using the following formula:
[formula] where Acontrol is the absorbance of the control reaction and Atest is the absorbance of the control reaction with sample.

[8] = test system: Staphylococcus aureus ATCC 29213; test: Agar well diffusion, primary antimicrobial screening; type: cell-based; conditions: for antibacterial activity compared with ciprofloxacin: S. aureus
Source text: as §1, §2

tested microorganisms = test: Agar well diffusion, summary over the tested microorganisms; type: cell-based; conditions: for antimicrobial activity compared with standard antimicrobials (ciprofloxacin and ketoconazole): against one or more microorganisms
Source text: as §1, §2

[9] = S. cerevisiae local isolate, 100 μL of 10 mg/ml in DMSO

Structure (SMILES): Cc1ccc2oc(=O)c3c(c2c1)OC(N=CN(C)C)=C(C#N)C3c1ccc([N+](=O)[O-])cc1 (racemic) [Compound 7a, (±)-N′-(3-cyano-9-methyl-4-(4-nitrophenyl)-5-oxo-4H,5H-pyrano[3,2-c]chromen-2-yl)-N,N-dimethylformimidamide]
- zone of inhibition at 10000 µg/mL [1]: < 15 mm
- zone of inhibition at 10000 µg/mL [2]: < 15 mm
- zone of inhibition at 10000 µg/mL [3]: < 15 mm
- zone of inhibition at 10000 µg/mL [4]: < 15 mm
- zone of inhibition at 10000 µg/mL [5]: < 15 mm
- zone of inhibition at 10000 µg/mL [6]: < 15 mm
- IC50 [7]: — ((—): inactive (IC50 > 200 μg/mL))
- melting point: 279 to 281 °C
- % Inhibition of proteinase activity (trypsin): 31.99 ± 2.45%

Structure (SMILES): O=c1oc2ccc(Cl)cc2c(O)c1S(=O)(=O)Nc1ccc(S(=O)(=O)Nc2ncccn2)cc1 [Compound 10c, 6-Chloro-4-hydroxy-2-oxo-N-(4-(N-(pyrimidin-2-yl)sulfamoyl)phenyl)-2H-chromene-3-sulfonamide]
- antibacterial activity compared with ciprofloxacin [1]: comparable antibacterial potential
- antibacterial activity compared with ciprofloxacin [8]: higher than the control ciprofloxacin
- antimicrobial activity compared with ketoconazole [4]: higher than that of the corresponding control drug
- zone of inhibition at 10000 µg/mL [4, 9]: 31 mm
- antibacterial activity compared with reference drug [5]: higher than the reference drug
- antibacterial activity compared with ciprofloxacin [6]: comparable to ciprofloxacin
- IC50 [7]: 120.12 ± 4.629 µg/mL (≈ 236 µM)
- antimicrobial activity compared with standard antimicrobials (ciprofloxacin and ketoconazole) (tested microorganisms): equal to or higher than the standard antimicrobials
- melting point: 230 to 232 °C

Structure (SMILES): O=C(/C=C/c1ccc([N+](=O)[O-])cc1)c1ccc(NS(=O)(=O)c2c(O)c3cc(Cl)ccc3oc2=O)cc1 [Compound 12a, (E)-6-chloro-4-hydroxy-N-(4-(3-(4-nitrophenyl)acryloyl)phenyl)-2-oxo-2H-chromene-3-sulfonamide]
- zone of inhibition at 10000 µg/mL [1]: < 15 mm
- zone of inhibition at 10000 µg/mL [2]: < 15 mm
- zone of inhibition at 10000 µg/mL [3]: < 15 mm
- zone of inhibition at 10000 µg/mL [4, 9]: < 15 mm
- IC50 [7]: — ((—): inactive (IC50 > 200 μg/mL))
- melting point: 205 to 207 °C
- in vitro anti-proteinase activity compared with aspirin (trypsin): more potent
- % Inhibition of proteinase activity (trypsin): 62.14±4.87%

Structure (SMILES): CC(=O)N1CCN(c2ccc(OCC3COC(Cn4ccnc4)(c4ccc(Cl)cc4Cl)O3)cc2)CC1 (stereo not shown) [Ketoconazole, ketoconazole, reference compound]
- zone of inhibition at 10000 µg/mL [1]: < 15 mm
- zone of inhibition at 10000 µg/mL ([8]; Staphylococcus aureus, ATCC29213, S. aureus ATCC 29213, 100 μL of 10 mg/ml in DMSO, 24 h, read-out: Inhibition Diameter Zone SA): < 15 mm
- zone of inhibition at 10000 µg/mL [2]: < 15 mm
- zone of inhibition at 10000 µg/mL [5]: < 15 mm
- zone of inhibition at 10000 µg/mL [6]: < 15 mm

Structure (SMILES): Cc1ccc2oc(=O)c(S(=O)(=O)Nc3ccc(O)cc3)c(O)c2c1 [Compound 11d, 4-Hydroxy-N-(4-hydroxyphenyl)-6-methyl-2-oxo-2H-chromene-3-sulfonamide]
- antibacterial activity compared with ciprofloxacin [1]: higher antibacterial activity than ciprofloxacin
- antibacterial activity compared with ciprofloxacin [8]: higher than the control ciprofloxacin
- antibacterial activity compared with standard [2]: higher than that of the standard drugs
- antifungal activity compared with reference drug [3]: higher antifungal activity
- antimicrobial activity compared with ketoconazole [4]: higher than that of the corresponding control drug
- zone of inhibition at 10000 µg/mL [4, 9]: 32 mm
- antibacterial activity compared with reference drug [5]: comparable antibacterial activities to the standard
- IC50 [7]: 4.30 ± 0.531 µg/mL (≈ 12.4 µM)
- antioxidant activity ([7]; overview): particularly high antioxidant activity
- antimicrobial activity compared with standard antimicrobials (ciprofloxacin and ketoconazole) (tested microorganisms): equal to or higher than the standard antimicrobials
- melting point: 253 to 254 °C
- % Inhibition of proteinase activity (trypsin): 20.15 ± 7.31%

Structure (SMILES): CC(=O)c1ccc(NS(=O)(=O)c2c(O)c3cc(C)ccc3oc2=O)cc1 [Compound 11f, N-(4-acetylphenyl)-4-hydroxy-6-methyl-2-oxo-2H-chromene-3-sulfonamide]
- zone of inhibition at 10000 µg/mL [1]: < 15 mm
- zone of inhibition at 10000 µg/mL [2]: < 15 mm
- zone of inhibition at 10000 µg/mL [3]: < 15 mm
- zone of inhibition at 10000 µg/mL [4, 9]: < 15 mm
- IC50 [7]: 35.36 ± 3.265 µg/mL (≈ 94.7 µM)
- melting point: 231 to 232 °C
- % Inhibition of proteinase activity (trypsin): 2.0 ± 1.4%

Structure (SMILES): O=C(/C=C/c1ccc(Cl)cc1)c1ccc(NS(=O)(=O)c2c(O)c3cc(Cl)ccc3oc2=O)cc1 [Compound 12c, (E)-6-chloro-N-(4-(3-(4-chlorophenyl)acryloyl)phenyl)-4-hydroxy-2-oxo-2H-chromene-3-sulfonamide]
- antibacterial activity compared with ciprofloxacin [1]: comparable antibacterial potential
- antibacterial activity compared with ciprofloxacin [8]: equal to ciprofloxacin
- antibacterial activity compared with standard [2]: comparable antibacterial activity to the standard
- antifungal activity compared with reference drug [3]: higher antifungal activity
- antimicrobial activity compared with ketoconazole [4]: higher than that of the corresponding control drug
- zone of inhibition at 10000 µg/mL [4, 9]: 31 mm
- antibacterial activity compared with reference drug [5]: comparable antibacterial activities to the standard
- antibacterial activity compared with ciprofloxacin [6]: comparable to ciprofloxacin
- IC50 [7]: — ((—): inactive (IC50 > 200 μg/mL))
- antimicrobial activity compared with standard antimicrobials (ciprofloxacin and ketoconazole) (tested microorganisms): equal to or higher than the standard antimicrobials
- melting point: 157 to 159 °C
- % Inhibition of proteinase activity (trypsin): 17.6 ± 6.86%

Structure (SMILES): Cc1ccc2oc(=O)c(S(=O)(=O)Nc3ccc(S(=O)(=O)Nc4ncccn4)cc3)c(O)c2c1 [Compound 10d, 4-hydroxy-6-methyl-2-oxo-N-(4-(N-(pyrimidin-2-yl)sulfamoyl)phenyl)-2H-chromene-3-sulfonamide]
- antibacterial activity compared with ciprofloxacin [8]: higher than the control ciprofloxacin
- antifungal activity compared with reference drug [3]: higher antifungal activity
- antimicrobial activity compared with ketoconazole [4]: higher than that of the corresponding control drug
- zone of inhibition at 10000 µg/mL [4, 9]: 32 mm
- antibacterial activity compared with reference drug [5]: higher than the reference drug
- antibacterial activity compared with ciprofloxacin [6]: comparable to ciprofloxacin
- IC50 [7]: 112.19 ± 4.391 µg/mL (≈ 230 µM)
- antimicrobial spectrum (tested microorganisms): broad-spectrum activity against all of the tested microorganisms
- antimicrobial activity compared with standard antimicrobials (ciprofloxacin and ketoconazole) (tested microorganisms): equal to or higher than the standard antimicrobials
- melting point: 207 to 209 °C
- % Inhibition of proteinase activity (trypsin): 36.84 ± 4.87%
